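A five-concentration, 48-hour dose response in 96-well plates underlies each endpoint, interpolated linearly between surrounding concentrations. Abbreviation: GI50, concentration required for 50% inhibition of growth.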 The source made the active and inactive calls. No stated cut-off is given here; in the data, active = GI50 up to about 1.1 µM and inactive = higher.
Experiments:
Test in all cases: NCI-60 cell line screen, 48 h
[1] = system: LOX IMVI
[2] = system: MDA-N
[3] = system: HCT-116
[4] = system: MCF7
[5] = system: SN12C
[6] = system: NCI-H23
[7] = system: A549
[8] = system: MDA-MB-435
[9] = system: NCI-H460
[10] = system: SF-539
[11] = system: SF-295
[12] = system: UO-31
[13] = system: OVCAR-8
[14] = system: M14
[15] = system: CAKI-1
[16] = system: OVCAR-3
[17] = system: SNB-75
[18] = system: RXF 393
[19] = system: Malme-3M
[20] = system: HL-60

Row | SMILES | GI50 [1] | GI50 [2] | GI50 [3] | GI50 [4] | GI50 [5] | GI50 [6] | GI50 [7] | GI50 [8] | GI50 [9] | GI50 [10] | GI50 [11] | GI50 [12] | GI50 [13] | GI50 [14] | GI50 [15] | GI50 [16] | GI50 [17] | GI50 [18] | GI50 [19] | GI50 [20]
1 | CN1CCN(/C(N)=C(\C#N)C(=O)Nc2ccccc2)CC1 | > 100 µM (inactive) | > 100 µM (inactive) | > 100 µM (inactive) | > 100 µM (inactive) | > 100 µM (inactive) | > 100 µM (inactive) | > 100 µM (inactive) | > 100 µM (inactive) | > 100 µM (inactive) | > 100 µM (inactive) | > 100 µM (inactive) | > 100 µM (inactive) | > 100 µM (inactive) | > 100 µM (inactive) | > 100 µM (inactive) | > 100 µM (inactive) | > 100 µM (inactive) | – | – | –
2 | CC(C)c1ccc2c(c1)/C(=C1/Nc3ccccc3C1=O)C(=O)N2 | > 100 µM (inactive) | 28.8 µM (inactive) | 11.3 µM (inactive) | 0.0188 µM (active) | 20.9 µM (inactive) | 24.4 µM (inactive) | 15.3 µM (inactive) | 25.8 µM (inactive) | 9.27 µM (inactive) | – | 14.8 µM (inactive) | 6.5 µM (inactive) | 10.6 µM (inactive) | 33.6 µM (inactive) | 14.3 µM (inactive) | 19 µM (inactive) | 3.4 µM (inactive) | 1.42 µM (inactive) | 46.8 µM (inactive) | –
3 | COc1cc2c3c(n(C)c(=O)c2cc1OC)-c1cc2c(cc1/C3=C\CCCCCBr)OCO2 | 3.01 µM (inactive) | 34.8 µM (inactive) | – | 3.5 µM (inactive) | 5.96 µM (inactive) | 10.6 µM (inactive) | 9.08 µM (inactive) | – | 5.83 µM (inactive) | – | 4.56 µM (inactive) | 4.66 µM (inactive) | 9.53 µM (inactive) | – | 3.81 µM (inactive) | – | 12.1 µM (inactive) | – | – | 4.02 µM (inactive)
4 | COc1ccc(OC)c(C#Cc2ccc(OC)c(C(=O)NCCc3ccc(F)cc3)c2)c1 | > 100 µM (inactive) | – | – | 6.5 µM (inactive) | – | > 100 µM (inactive) | 7.55 µM (inactive) | 1.23 µM (inactive) | 5.09 µM (inactive) | – | 4.67 µM (inactive) | 28.3 µM (inactive) | > 100 µM (inactive) | 5.53 µM (inactive) | > 100 µM (inactive) | – | – | – | – | 5.13 µM (inactive)
5 | CN1CCN(C(=S)N(C)C(=O)c2cccs2)CC1 | > 100 µM (inactive) | > 100 µM (inactive) | – | > 100 µM (inactive) | > 100 µM (inactive) | > 100 µM (inactive) | > 100 µM (inactive) | > 100 µM (inactive) | > 100 µM (inactive) | – | > 100 µM (inactive) | > 100 µM (inactive) | > 100 µM (inactive) | > 100 µM (inactive) | – | > 100 µM (inactive) | – | > 100 µM (inactive) | > 100 µM (inactive) | –
6 | CCN(CC)CCNC(=O)c1ccc(C)c(OCc2ccccc2)c1[N+](=O)[O-] | 22.5 µM (inactive) | 19.9 µM (inactive) | 23 µM (inactive) | 22.3 µM (inactive) | 74.3 µM (inactive) | 54.3 µM (inactive) | 44.8 µM (inactive) | – | 36.6 µM (inactive) | 33.7 µM (inactive) | 24.5 µM (inactive) | 21 µM (inactive) | > 100 µM (inactive) | 17.8 µM (inactive) | 20.7 µM (inactive) | 43.9 µM (inactive) | 18 µM (inactive) | 52.5 µM (inactive) | 16.9 µM (inactive) | 19.5 µM (inactive)
7 | NC(CCC(=O)NC(CSC(=O)N(O)c1ccc(Cl)cc1)C(=O)NCC(=O)O)C(=O)O (configuration not stated) | – | > 0.5 µM (active) | > 0.5 µM (active) | > 0.5 µM (active) | > 0.5 µM (active) | > 0.5 µM (active) | > 0.5 µM (active) | > 0.5 µM (active) | > 0.5 µM (active) | > 0.5 µM (active) | > 0.5 µM (active) | > 0.5 µM (active) | > 0.5 µM (active) | > 0.5 µM (active) | > 0.5 µM (active) | > 0.5 µM (active) | > 0.5 µM (active) | > 0.5 µM (active) | – | –
8 | COc1ccc(OC)c([N+](=O)[O-])c1-c1nc2sc(C)cn2c1/C=N/N=C(N)N | 70.1 µM (inactive) | – | 39.5 µM (inactive) | 15.1 µM (inactive) | 23.4 µM (inactive) | 22.8 µM (inactive) | 48.6 µM (inactive) | 20.1 µM (inactive) | 29.6 µM (inactive) | 38.4 µM (inactive) | 24.3 µM (inactive) | > 100 µM (inactive) | 25.7 µM (inactive) | 32.8 µM (inactive) | 28.7 µM (inactive) | 28.9 µM (inactive) | – | 28.2 µM (inactive) | 19.1 µM (inactive) | –
9 | CCCCCCCCCCCCC(=O)OC(c1cnco1)c1nc(C(O)CC(O)C(O)C(C)O)co1 (configuration not stated) | 0.144 µM (active) | 1.95 µM (inactive) | 0.157 µM (active) | 0.454 µM (active) | 1.78 µM (inactive) | 0.336 µM (active) | 0.264 µM (active) | – | < 0.039 µM (active) | 0.942 µM (active) | 0.467 µM (active) | 8.97 µM (inactive) | 0.299 µM (active) | 0.491 µM (active) | 0.265 µM (active) | 2.85 µM (inactive) | 0.581 µM (active) | 1.38 µM (inactive) | 0.828 µM (active) | 0.849 µM (active)
10 | COc1ccc(CCNC(=O)[C@H]2CCCC[C@@H]2CCO)cc1OC | – | – | > 100 µM (inactive) | > 100 µM (inactive) | > 100 µM (inactive) | > 100 µM (inactive) | > 100 µM (inactive) | > 100 µM (inactive) | > 100 µM (inactive) | > 100 µM (inactive) | > 100 µM (inactive) | 54.7 µM (inactive) | > 100 µM (inactive) | > 100 µM (inactive) | > 100 µM (inactive) | > 100 µM (inactive) | 88.7 µM (inactive) | > 100 µM (inactive) | – | > 100 µM (inactive)
11 | Cc1ccc(/N=N/c2c(O)ccc3ccccc23)c(C)c1 | > 100 µM (inactive) | > 100 µM (inactive) | > 100 µM (inactive) | – | > 100 µM (inactive) | > 100 µM (inactive) | > 100 µM (inactive) | > 100 µM (inactive) | – | – | > 100 µM (inactive) | > 100 µM (inactive) | > 100 µM (inactive) | > 100 µM (inactive) | > 100 µM (inactive) | > 100 µM (inactive) | > 100 µM (inactive) | > 100 µM (inactive) | – | –
12 | O=[N+]([O-])C(C(Cl)=C(Cl)Cl)=C(n1cncn1)n1cncn1 | 17.7 µM (inactive) | – | 16.1 µM (inactive) | 25.6 µM (inactive) | 12.4 µM (inactive) | 25.6 µM (inactive) | > 22.1 µM (inactive) | 30.8 µM (inactive) | > 75.5 µM (inactive) | 19 µM (inactive) | > 86.7 µM (inactive) | 18.5 µM (inactive) | 19.2 µM (inactive) | 31.4 µM (inactive) | 5.47 µM (inactive) | 18.2 µM (inactive) | > 44.2 µM (inactive) | 14.6 µM (inactive) | 16.4 µM (inactive) | –
